According to patent publication US20190192502A1, “Modulation of Transcription Initiation Factor TFIID Subunit 1 (TAF1) for Treating Leukemia” (UNIVERSITY OF MIAMI, priority 2017, published 2019):

Legend:
Kasumi-1 cells = experiment: Cell growth, CellTiter-Glow luminescent cell viability assay, Kasumi-1 cells; assay type: cell-based, human; conditions: for growth of Kasumi-1 cells: 3 days of treatment
Procedure: (§1) FIGS. 8A-8F. The effect of TAF1 bromodomain inhibitor Bay-364 on the growth of Kasumi-1 cells, K562 cells and CD34+ cells. (FIGS. 8A-8C) The growth of Kasumi-1 cells, CD34+ cells and K562 cells in the presence or absence of different concentrations of bromodomain inhibitors Bay-364, Bay-299 or JQ-1. The cell growth was measured by CellTiter-Glow luminescent cell viability assay after 3 days of treatment with the inhibitors. Each treatment was in triplicate and shown as average±SD. (FIG. 8D) IC50s (μM) of inhibitors on Kasumi-1, CD34+ and K562 cellsKasumi-1 cells, CD34+ cells and K562 cells were treated with different concentrations of Bay-364, Bay-299 and JQ-1 for three days and cell growth was measured by CellTiter-Glow luminescent cell viability assay. Each treatment was in triplicate and IC50s were calculated using GraphPad Prism. […] RNA was extracted from Kasumi-1 cells treated with or without Bay-364 for 72 hours. mRNA levels of individual genes were standardized by 18S rRNA level. (FIG. 8F) TAF1 working model: Under normal conditions, the acetylation of K43 on AE by p300 is recognized by the bromodomains of TAF1 and TAF1 enhances the binding of AE to chromatin. Then transcription is activated. In absence of TAF1, the binding affinity of AE with chromatin is abrogated, and transcription is blocked.
Kasumi-1 cells were grown in RPMI 1640 supplemented with 20% fetal bovine serum, SKNO-1 cells were grown in RPMI 1640 with 10% fetal bovine serum and 10 ng/ml GM-CSF. K562 cells were grown in IMDM with 10% fetal bovine serum.
Bay-364 (also Bay-299N) is a commercially available small molecule inhibitor of the second bromodomain in TAF1. Given the essential role of TAF1 in the proliferation of AE expressing cells, the effect of Bay-364 on the growth of Kasumi-1, K562 and CD34+ cells was examined. […] JQ-1 inhibits the bromodomains of several BET family proteins including BRD2, BRD3, BRD4 and BRDT.

CD34+ cells = experiment: Cell growth, CellTiter-Glow luminescent cell viability assay, CD34+ cells; assay type: cell-based, human; conditions: 3 days of treatment
Procedure: as §1, with “(FIG. 8F) TAF1 working model: Under normal conditions, the acetylation of K43 on AE by p300 is recognized by the bromodomains of TAF1 and TAF1 enhances the binding of AE to chromatin. Then transcription is activated. In absence of TAF1, the binding affinity of AE with chromatin is abrogated, and transcription is blocked.” left out
Human cord blood was purchased from the New York Blood Center. […] Seven days after the initial plating, colonies were counted and then all the cells were collected for replating weekly with a density of 3000 cells per well for continuous 4 weeks. Cobblestone area forming cell assays (CAFC) were performed as described previously 25, the numbers of total cobblestone area were counted after 5 weeks. […]

K562 cells = experiment: Cell growth, CellTiter-Glow luminescent cell viability assay, K562 cells; assay type: cell-based; conditions: 3 days of treatment
Procedure: as §1, with “blocked. […]” for “blocked.”

[1] = system: AE upregulated genes (ID1, CARM1, MYC); experiment: Realtime PCR of AE upregulated genes in Kasumi-1 cells; assay type: cell-based, human; conditions: 72 hours, standardized by 18S rRNA level
Procedure: as §1, with “In absence of TAF1, the binding affinity of AE with chromatin is abrogated, and transcription is blocked.” left out
RNA was extracted using RNeasy mini kit (Qiagen) and cDNA was generated by QuantiTect Rev. […]

In the case of Cc1sc2c(c1C)C(c1ccc(Cl)cc1)=N[C@@H](CC(=O)OC(C)(C)C)c1nnc(C)n1-2 [JQ-1], the “growth of Kasumi-1 cells” value (Kasumi-1 cells) is reported as “more potent than Bay-364” and the “IC50s on Kasumi-1 cells compared with CD34+ cells” value (Kasumi-1 cells; three days, GraphPad Prism) is reported as “quite similar”.

In the case of Cn1c(=O)[nH]c2cc(N3C(=O)c4cccc5c(CCCO)ccc(c45)C3=O)ccc21 [Bay-364], the “growth of Kasumi-1 cells” value (Kasumi-1 cells) is reported as “more sensitive to Bay-364 treatment than CD34+ cells”, the “growth of CD34+ cells” value (CD34+ cells) is reported as “much less toxicity on HSPCs” and the “growth of K562 cells” value (K562 cells) is reported as “little influence on the growth”. The “mRNA levels of ID1, CARM1, MYC” value [1] was “repressed the expression of these genes”.

For Cc1cc2c(cc1N1C(=O)c3cccc4c(CCCO)ccc(c34)C1=O)n(C)c(=O)n2C [Bay-299, 6-(3-Hydroxypropyl)-2-(1,3,6-trimethyl-2-oxo-2,3-dihydro-1Hbenzimidazol-5-yl)-1H-benzo[de]isoquinoline-1,3(2H)-dione], the “growth of Kasumi-1 cells” value (Kasumi-1 cells) was “suppresses the growth”, the “growth of CD34+ cells” value (CD34+ cells) was “suppresses the growth” and the “growth of K562 cells” value (K562 cells) was “suppresses the growth”.
